Experimental data published in patent US10265419B2, “Intraoperative determination of nerve location” (Novadaq Technologies ULC, priority 2005, dated 2019).

Columns and labels:
[1] = test system: cavernous nerves; test: NIRF imaging of cavernous nerves after intracrural ICG injection in rats; assay type: in vivo
[2] = cited from earlier work

For CC1(C)C(/C=C/C=C/C=C/C=C2\N(CCCCS(=O)(=O)O)c3ccc4ccccc4c3C2(C)C)=[N+](CCCCS(=O)(=O)[O-])c2ccc3ccccc3c21 [ICG, indocyanine green], the “time post-injection of highest fluorescence intensity” value ([1]; NIRF imaging) is listed as 18 and at 24, the “fluorescence of the cavernous nerves at longer post-injection periods” value ([1]; e.g. 30 days post-injection) is listed as “not detectable” and the “metabolism in the body” value ([2]; after intravenous injection) is listed as “not metabolized in the body”. The route of excretion ([2]; after intravenous injection) was “excreted exclusively by the liver” and the “reabsorption from the intestine / enterohepatic recirculation” value ([2]; in vivo) was “not reabsorbed from the intestine and does not undergo enterohepatic recirculation”.
